*1 amine or outer side, *2 acyl side, *3 side chain or, on linkers, in order; H or OH if unused. Where a SMILES comes first, the peptide text is derived from it. [ ]: non-standard residue; d: D form. X1 = N=C(NCCC[C@H](N[*:1])C(=O)[*:2])N[C@@H]1O[C@H](CO)[C@@H](O)[C@H](O)[C@H]1O; X7 = N=C(NCCC[C@H](N[*:1])C(=O)[*:2])N[C@H]1O[C@H](CO)[C@@H](O)[C@H](O)[C@@H]1O; X4 = N=C(NCCC[C@H](N[*:1])C(=O)[*:2])N[C@@H]1O[C@H](CO)[C@H](O)[C@H](O)[C@H]1O

The data set in a line: Cytotoxicity against C57BL/6 mouse Pre-Osteoblast cells assessed as cell death upto 5 uM incubated for 4 days by CCK-8 assay. The format is toxicity, cell-based. The note with it: 96 h, time 4 day. A general note: Tetrazolium dyes change colour on reduction, which living cells bring about.
Regarding `CC[C@H](C)[C@H](NC(=O)[C@H](CCC(=O)O)NC(=O)[C@H](CO)NC(=O)[C@@H](NC(=O)[C@H](CO)NC(C)=O)C(C)C)C(=O)N[C@@H](CCC(N)=O)C(=O)N[C@@H](CC(C)C)C(=O)N[C@@H](CCSC)C(=O)N[C@@H](Cc1cnc[nH]1)C(=O)N[C@@H](CC(N)=O)C(=O)N[C@@H](CC(C)C)C(=O)NCC(=O)N[C@@H](CCCCN)C(=O)N[C@@H](Cc1cnc[nH]1)C(=O)N[C@@H](CC(C)C)C(=O)N[C@@H](CC(N)=O)C(=O)N[C@@H](CO)C(=O)N[C@@H](CCSC)C(=O)N[C@@H](CCC(=O)O)C(=O)N[C@@H](CCCNC(=N)N[C@@H]1O[C@H](CO)[C@H](O)[C@H](O)[C@H]1O)C(=O)N[C@H](C(=O)N[C@@H](CCC(=O)O)C(=O)N[C@@H](Cc1c[nH]c2ccccc12)C(=O)N[C@@H](CC(C)C)C(=O)N[C@@H](CCCNC(=N)N[C@@H]1O[C@H](CO)[C@H](O)[C@H](O)[C@H]1O)C(=O)N[C@@H](CCCCN)C(=O)N[C@@H](CCCCN)C(=O)N[C@@H](CC(C)C)C(=O)N[C@@H](CCC(N)=O)C(=O)N[C@@H](CC(=O)O)C(=O)N[C@H](C(=O)N[C@@H](Cc1cnc[nH]1)C(=O)N[C@@H](CC(N)=O)C(=O)N[C@@H](Cc1ccccc1)C(N)=O)C(C)C)C(C)C` (Ac-SVSEIQLMHNLGKHLNSME[X4]VEWL[X4]KKLQDVHNF-NH2), the Activity result is recorded as “Non-Toxic”.

As to `CC[C@H](C)[C@H](NC(=O)[C@H](CCC(=O)O)NC(=O)[C@H](CO)NC(=O)[C@@H](NC(=O)[C@H](CO)NC(C)=O)C(C)C)C(=O)N[C@@H](CCC(N)=O)C(=O)N[C@@H](CC(C)C)C(=O)N[C@@H](CCSC)C(=O)N[C@@H](Cc1cnc[nH]1)C(=O)N[C@@H](CC(N)=O)C(=O)N[C@@H](CC(C)C)C(=O)NCC(=O)N[C@@H](CCCCN)C(=O)N[C@@H](Cc1cnc[nH]1)C(=O)N[C@@H](CC(C)C)C(=O)N[C@@H](CC(N)=O)C(=O)N[C@@H](CO)C(=O)N[C@@H](CCSC)C(=O)N[C@@H](CCC(=O)O)C(=O)N[C@@H](CCCNC(=N)N[C@@H]1O[C@H](CO)[C@@H](O)[C@H](O)[C@H]1O)C(=O)N[C@H](C(=O)N[C@@H](CCC(=O)O)C(=O)N[C@@H](Cc1c[nH]c2ccccc12)C(=O)N[C@@H](CC(C)C)C(=O)N[C@@H](CCCNC(=N)N[C@@H]1O[C@H](CO)[C@@H](O)[C@H](O)[C@H]1O)C(=O)N[C@@H](CCCCN)C(=O)N[C@@H](CCCCN)C(=O)N[C@@H](CC(C)C)C(=O)N[C@@H](CCC(N)=O)C(=O)N[C@@H](CC(=O)O)C(=O)N[C@H](C(=O)N[C@@H](Cc1cnc[nH]1)C(=O)N[C@@H](CC(N)=O)C(=O)N[C@@H](Cc1ccccc1)C(N)=O)C(C)C)C(C)C` (Ac-SVSEIQLMHNLGKHLNSME[X1]VEWL[X1]KKLQDVHNF-NH2), the Activity result is given as “Non-Toxic”.

As to `CC[C@H](C)[C@H](NC(=O)[C@H](CCC(=O)O)NC(=O)[C@H](CO)NC(=O)[C@@H](NC(=O)[C@H](CO)NC(C)=O)C(C)C)C(=O)N[C@@H](CCC(N)=O)C(=O)N[C@@H](CC(C)C)C(=O)N[C@@H](CCSC)C(=O)N[C@@H](Cc1cnc[nH]1)C(=O)N[C@@H](CC(N)=O)C(=O)N[C@@H](CC(C)C)C(=O)NCC(=O)N[C@@H](CCCCN)C(=O)N[C@@H](Cc1cnc[nH]1)C(=O)N[C@@H](CC(C)C)C(=O)N[C@@H](CC(N)=O)C(=O)N[C@@H](CO)C(=O)N[C@@H](CCSC)C(=O)N[C@@H](CCC(=O)O)C(=O)N[C@@H](CCCNC(=N)N[C@H]1O[C@H](CO)[C@@H](O)[C@H](O)[C@@H]1O)C(=O)N[C@H](C(=O)N[C@@H](CCC(=O)O)C(=O)N[C@@H](Cc1c[nH]c2ccccc12)C(=O)N[C@@H](CC(C)C)C(=O)N[C@@H](CCCNC(=N)N[C@H]1O[C@H](CO)[C@@H](O)[C@H](O)[C@@H]1O)C(=O)N[C@@H](CCCCN)C(=O)N[C@@H](CCCCN)C(=O)N[C@@H](CC(C)C)C(=O)N[C@@H](CCC(N)=O)C(=O)N[C@@H](CC(=O)O)C(=O)N[C@H](C(=O)N[C@@H](Cc1cnc[nH]1)C(=O)N[C@@H](CC(N)=O)C(=O)N[C@@H](Cc1ccccc1)C(N)=O)C(C)C)C(C)C` (Ac-SVSEIQLMHNLGKHLNSME[X7]VEWL[X7]KKLQDVHNF-NH2), the Activity result is listed as “Non-Toxic”.

As to `CC[C@H](C)[C@H](NC(=O)[C@H](CCC(=O)O)NC(=O)[C@H](CO)NC(=O)[C@@H](NC(=O)[C@H](CO)NC(C)=O)C(C)C)C(=O)N[C@@H](CCC(N)=O)C(=O)N[C@@H](CC(C)C)C(=O)N[C@@H](CCSC)C(=O)N[C@@H](Cc1cnc[nH]1)C(=O)N[C@@H](CC(N)=O)C(=O)N[C@@H](CC(C)C)C(=O)NCC(=O)N[C@@H](CCCCN)C(=O)N[C@@H](Cc1cnc[nH]1)C(=O)N[C@@H](CC(C)C)C(=O)N[C@@H](CC(N)=O)C(=O)N[C@@H](CO)C(=O)N[C@@H](CCSC)C(=O)N[C@@H](CCC(=O)O)C(=O)N[C@@H](CCCNC(=N)N[C@H]1O[C@H](CO)[C@@H](O)[C@H](O)[C@H]1O)C(=O)N[C@H](C(=O)N[C@@H](CCC(=O)O)C(=O)N[C@@H](Cc1c[nH]c2ccccc12)C(=O)N[C@@H](CC(C)C)C(=O)N[C@@H](CCCNC(=N)N)C(=O)N[C@@H](CCCCN)C(=O)N[C@@H](CCCCN)C(=O)N[C@@H](CC(C)C)C(=O)N[C@@H](CCC(N)=O)C(=O)N[C@@H](CC(=O)O)C(=O)N[C@H](C(=O)N[C@@H](Cc1cnc[nH]1)C(=O)N[C@@H](CC(N)=O)C(=O)N[C@@H](Cc1ccccc1)C(N)=O)C(C)C)C(C)C`, the Activity result is recorded as “Non-Toxic”.

In the case of `CC[C@H](C)[C@H](NC(=O)[C@H](CCC(=O)O)NC(=O)[C@H](CO)NC(=O)[C@@H](NC(=O)[C@H](CO)NC(C)=O)C(C)C)C(=O)N[C@@H](CCC(N)=O)C(=O)N[C@@H](CC(C)C)C(=O)N[C@@H](CCSC)C(=O)N[C@@H](Cc1cnc[nH]1)C(=O)N[C@@H](CC(N)=O)C(=O)N[C@@H](CC(C)C)C(=O)NCC(=O)N[C@@H](CCCCN)C(=O)N[C@@H](Cc1cnc[nH]1)C(=O)N[C@@H](CC(C)C)C(=O)N[C@@H](CC(N)=O)C(=O)N[C@@H](CO)C(=O)N[C@@H](CCSC)C(=O)N[C@@H](CCC(=O)O)C(=O)N[C@@H](CCCNC(=N)N[C@@H]1O[C@H](CO)[C@@H](O[C@H]2O[C@H](CO)[C@@H](O)[C@H](O)[C@H]2O)[C@H](O)[C@H]1O)C(=O)N[C@H](C(=O)N[C@@H](CCC(=O)O)C(=O)N[C@@H](Cc1c[nH]c2ccccc12)C(=O)N[C@@H](CC(C)C)C(=O)N[C@@H](CCCNC(=N)N)C(=O)N[C@@H](CCCCN)C(=O)N[C@@H](CCCCN)C(=O)N[C@@H](CC(C)C)C(=O)N[C@@H](CCC(N)=O)C(=O)N[C@@H](CC(=O)O)C(=O)N[C@H](C(=O)N[C@@H](Cc1cnc[nH]1)C(=O)N[C@@H](CC(N)=O)C(=O)N[C@@H](Cc1ccccc1)C(N)=O)C(C)C)C(C)C`, the Activity entry is recorded as “Non-Toxic”.

For `CC[C@H](C)[C@H](NC(=O)[C@H](CCC(=O)O)NC(=O)[C@H](CO)NC(=O)[C@@H](NC(=O)[C@H](CO)NC(C)=O)C(C)C)C(=O)N[C@@H](CCC(N)=O)C(=O)N[C@@H](CC(C)C)C(=O)N[C@@H](CCSC)C(=O)N[C@@H](Cc1cnc[nH]1)C(=O)N[C@@H](CC(N)=O)C(=O)N[C@@H](CC(C)C)C(=O)NCC(=O)N[C@@H](CCCCN)C(=O)N[C@@H](Cc1cnc[nH]1)C(=O)N[C@@H](CC(C)C)C(=O)N[C@@H](CC(N)=O)C(=O)N[C@@H](CO)C(=O)N[C@@H](CCSC)C(=O)N[C@@H](CCC(=O)O)C(=O)N[C@@H](CCCNC(=N)N[C@@H]1O[C@H](CO)[C@@H](O)[C@H]1O)C(=O)N[C@H](C(=O)N[C@@H](CCC(=O)O)C(=O)N[C@@H](Cc1c[nH]c2ccccc12)C(=O)N[C@@H](CC(C)C)C(=O)N[C@@H](CCCNC(=N)N[C@@H]1O[C@H](CO)[C@@H](O)[C@H]1O)C(=O)N[C@@H](CCCCN)C(=O)N[C@@H](CCCCN)C(=O)N[C@@H](CC(C)C)C(=O)N[C@@H](CCC(N)=O)C(=O)N[C@@H](CC(=O)O)C(=O)N[C@H](C(=O)N[C@@H](Cc1cnc[nH]1)C(=O)N[C@@H](CC(N)=O)C(=O)N[C@@H](Cc1ccccc1)C(N)=O)C(C)C)C(C)C`, the Activity entry was “Non-Toxic”.

Take `CC[C@H](C)[C@H](NC(=O)[C@H](CCC(=O)O)NC(=O)[C@H](CO)NC(=O)[C@@H](NC(=O)[C@H](CO)NC(C)=O)C(C)C)C(=O)N[C@@H](CCC(N)=O)C(=O)N[C@@H](CC(C)C)C(=O)N[C@@H](CCSC)C(=O)N[C@@H](Cc1cnc[nH]1)C(=O)N[C@@H](CC(N)=O)C(=O)N[C@@H](CC(C)C)C(=O)NCC(=O)N[C@@H](CCCCN)C(=O)N[C@@H](Cc1cnc[nH]1)C(=O)N[C@@H](CC(C)C)C(=O)N[C@@H](CC(N)=O)C(=O)N[C@@H](CO)C(=O)N[C@@H](CCSC)C(=O)N[C@@H](CCC(=O)O)C(=O)N[C@@H](CCCNC(=N)N[C@@H]1O[C@H](CO)[C@@H](O[C@H]2O[C@H](CO)[C@@H](O)[C@H](O)[C@H]2O)[C@H](O)[C@H]1O)C(=O)N[C@H](C(=O)N[C@@H](CCC(=O)O)C(=O)N[C@@H](Cc1c[nH]c2ccccc12)C(=O)N[C@@H](CC(C)C)C(=O)N[C@@H](CCCNC(=N)N[C@@H]1O[C@H](CO)[C@@H](O[C@H]2O[C@H](CO)[C@@H](O)[C@H](O)[C@H]2O)[C@H](O)[C@H]1O)C(=O)N[C@@H](CCCCN)C(=O)N[C@@H](CCCCN)C(=O)N[C@@H](CC(C)C)C(=O)N[C@@H](CCC(N)=O)C(=O)N[C@@H](CC(=O)O)C(=O)N[C@H](C(=O)N[C@@H](Cc1cnc[nH]1)C(=O)N[C@@H](CC(N)=O)C(=O)N[C@@H](Cc1ccccc1)C(N)=O)C(C)C)C(C)C`: the Activity result is given as “Non-Toxic”.

For `CC[C@H](C)[C@H](NC(=O)[C@H](CCC(=O)O)NC(=O)[C@H](CO)NC(=O)[C@@H](NC(=O)[C@H](CO)NC(C)=O)C(C)C)C(=O)N[C@@H](CCC(N)=O)C(=O)N[C@@H](CC(C)C)C(=O)N[C@@H](CCSC)C(=O)N[C@@H](Cc1cnc[nH]1)C(=O)N[C@@H](CC(N)=O)C(=O)N[C@@H](CC(C)C)C(=O)NCC(=O)N[C@@H](CCCCN)C(=O)N[C@@H](Cc1cnc[nH]1)C(=O)N[C@@H](CC(C)C)C(=O)N[C@@H](CC(N)=O)C(=O)N[C@@H](CO)C(=O)N[C@@H](CCSC)C(=O)N[C@@H](CCC(=O)O)C(=O)N[C@@H](CCCNC(=N)N)C(=O)N[C@H](C(=O)N[C@@H](CCC(=O)O)C(=O)N[C@@H](Cc1c[nH]c2ccccc12)C(=O)N[C@@H](CC(C)C)C(=O)N[C@@H](CCCNC(=N)N[C@@H]1O[C@H](CO)[C@@H](O)[C@H](O)[C@H]1NC(C)=O)C(=O)N[C@@H](CCCCN)C(=O)N[C@@H](CCCCN)C(=O)N[C@@H](CC(C)C)C(=O)N[C@@H](CCC(N)=O)C(=O)N[C@@H](CC(=O)O)C(=O)N[C@H](C(=O)N[C@@H](Cc1cnc[nH]1)C(=O)N[C@@H](CC(N)=O)C(=O)N[C@@H](Cc1ccccc1)C(N)=O)C(C)C)C(C)C`, the Activity entry is recorded as “Non-Toxic”.

The values are drawn from ChEMBL document CHEMBL5537170, “Design, Synthesis, and Anti-Osteoporotic Characterization of Arginine N-Glycosylated Teriparatide Analogs via the Silver-catalyzed Solid-Phase Glycosylation Strategy” (J Med Chem, 2024).
